The values that follow come from ChEMBL document CHEMBL4229400, “Covalent inhibitors of nicotinamide N-methyltransferase (NNMT) provide evidence for target engagement challenges in situ” (Bioorg Med Chem Lett, 2018).

Activity calls are given as the source filed them. The rule behind the calls is not given here.

In experiment [1] the target is T1, Nicotinamide N-methyltransferase (Homo sapiens) (UniProt P40261).
T1 sequence (whole entry): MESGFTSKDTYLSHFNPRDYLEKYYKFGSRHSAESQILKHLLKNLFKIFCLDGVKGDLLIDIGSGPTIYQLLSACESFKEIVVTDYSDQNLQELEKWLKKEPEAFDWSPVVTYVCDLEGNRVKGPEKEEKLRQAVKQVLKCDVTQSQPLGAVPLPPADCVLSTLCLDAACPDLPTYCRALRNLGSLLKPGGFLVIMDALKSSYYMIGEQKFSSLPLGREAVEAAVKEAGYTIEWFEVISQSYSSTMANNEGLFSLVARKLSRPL
Briefly: Binding affinity to NNMT C165 residue in human 786-O cell soluble proteomic lysate at 5 uM incubated for 1 hr followed by cell lysis by IA-alkyne probe based isoTOP-ABPP analysis relative to control.

The target of experiment [2] is T2, Sterol carrier protein 2 (Homo sapiens) (UniProt P22307).
T2 sequence (whole entry): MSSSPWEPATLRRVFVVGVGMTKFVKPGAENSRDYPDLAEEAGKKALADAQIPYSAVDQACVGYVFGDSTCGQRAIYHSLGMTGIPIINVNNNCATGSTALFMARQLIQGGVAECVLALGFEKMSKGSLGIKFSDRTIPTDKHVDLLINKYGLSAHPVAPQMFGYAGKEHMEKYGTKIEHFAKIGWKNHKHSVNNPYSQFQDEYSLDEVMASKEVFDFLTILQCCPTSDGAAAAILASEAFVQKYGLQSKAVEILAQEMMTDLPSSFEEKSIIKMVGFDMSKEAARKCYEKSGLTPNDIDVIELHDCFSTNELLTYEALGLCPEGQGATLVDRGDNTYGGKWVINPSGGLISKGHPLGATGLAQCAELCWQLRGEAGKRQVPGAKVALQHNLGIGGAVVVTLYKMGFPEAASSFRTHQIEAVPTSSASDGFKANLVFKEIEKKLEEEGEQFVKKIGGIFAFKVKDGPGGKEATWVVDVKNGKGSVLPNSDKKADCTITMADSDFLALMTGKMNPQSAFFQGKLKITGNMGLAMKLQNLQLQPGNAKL
Briefly: Binding affinity to SCP2 cysteine residue in human 786-O cell soluble proteomic lysate at 5 uM incubated for 1 hr followed by cell lysis by IA-alkyne probe based isoTOP-ABPP analysis.

Experiment [3] has as its target T1, Nicotinamide N-methyltransferase (Homo sapiens). Briefly: Inhibition of SAH-rhodamine binding to NNMT in human 786-O cell soluble proteomic lysate preincubated for 1 hr followed by SAH-rhodamine addition measured after 5 mins by Gel-based ABPP analysis.
Experiment [4] shares this target. Description: Inhibition of SAH-rhodamine binding to NNMT in human 786-O cell soluble proteomic lysate assessed as ratio of observed rate constant to test compound concentration preincubated for 10 to 40 mins followed by SAH-rhodamine addition measured after 5 mins by Gel-based ABPP analysis.
The target of experiment [5] is T3, Nicotinamide N-methyltransferase (Homo sapiens, UniProt P40261).
T3 sequence (P40261 whole entry): T1 sequence (whole entry)
Briefly: Inhibition of NNMT in human 786-O cell lysate using d4-nicotinamide as substrate pretreated for 1 hr at 3 mins post 80 uM SAM addition followed by substrate addition measured after 15 to 30 mins by LC-MS analysis.

Experiment [6] has as its target T3, Nicotinamide N-methyltransferase. Briefly: Inhibition of NNMT in human 786-O cell lysate using d4-nicotinamide as substrate pretreated for 1 hr at 3 mins post 10 uM SAM addition followed by substrate addition measured after 15 to 30 mins by LC-MS analysis.
Experiment [7] concerns the target T1, Nicotinamide N-methyltransferase (Homo sapiens). Briefly: Binding affinity to NNMT C165 residue in human 786-O cell lysate at 5 uM incubated for 4 hrs followed by cell lysis by IA-alkyne probe based isoTOP-ABPP analysis.
Experiment [8] has as its target Receptor expression-enhancing protein 5 (Homo sapiens) (UniProt Q00765). Briefly: Binding affinity to REEP5 cysteine residue in human 786-O cell soluble proteomic lysate at 5 uM incubated for 1 hr followed by cell lysis by IA-alkyne probe based isoTOP-ABPP analysis.
For experiment [9], the target named is T4, Thioredoxin domain-containing protein 17 (Homo sapiens) (UniProt Q9BRA2).
T4 sequence (whole entry): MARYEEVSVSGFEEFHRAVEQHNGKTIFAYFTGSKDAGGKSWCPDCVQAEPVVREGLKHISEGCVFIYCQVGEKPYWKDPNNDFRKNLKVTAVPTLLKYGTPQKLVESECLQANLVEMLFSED
Briefly: Binding affinity to TXNDC17 cysteine residue in human 786-O cell soluble proteomic lysate at 5 uM incubated for 1 hr followed by cell lysis by IA-alkyne probe based isoTOP-ABPP analysis.

The target of experiment [10] is T5, Glutathione S-transferase omega-1 (Homo sapiens) (UniProt P78417).
T5 sequence (whole entry): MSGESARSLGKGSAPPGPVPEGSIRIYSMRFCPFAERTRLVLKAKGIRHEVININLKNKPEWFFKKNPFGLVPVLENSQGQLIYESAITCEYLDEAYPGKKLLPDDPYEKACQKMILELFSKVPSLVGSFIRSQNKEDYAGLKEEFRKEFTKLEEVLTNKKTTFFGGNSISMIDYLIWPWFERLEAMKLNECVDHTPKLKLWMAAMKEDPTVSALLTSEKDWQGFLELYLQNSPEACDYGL
Description: Binding affinity to GSTO1 C32 residue in human 786-O cell lysate at 5 uM incubated for 1 hr followed by cell lysis by IA-alkyne probe based isoTOP-ABPP analysis.

Experiment [11] concerns the target T6, Heme oxygenase 2 (Homo sapiens) (UniProt P30519).
T6 sequence (whole entry): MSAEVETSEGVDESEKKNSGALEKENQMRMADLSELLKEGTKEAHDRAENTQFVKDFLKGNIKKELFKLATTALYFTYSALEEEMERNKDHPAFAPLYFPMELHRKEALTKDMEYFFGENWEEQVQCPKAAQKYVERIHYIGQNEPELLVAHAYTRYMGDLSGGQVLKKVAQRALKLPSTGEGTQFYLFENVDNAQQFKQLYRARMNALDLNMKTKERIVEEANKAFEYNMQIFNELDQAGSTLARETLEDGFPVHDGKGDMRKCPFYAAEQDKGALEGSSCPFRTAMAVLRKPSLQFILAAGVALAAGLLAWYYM
Briefly: Binding affinity to HMOX2 cysteine residue in human 786-O cell lysate at 5 uM incubated for 1 hr followed by cell lysis by IA-alkyne probe based isoTOP-ABPP analysis.

The target of experiment [12] is T4, Thioredoxin domain-containing protein 17 (Homo sapiens). Description: Binding affinity to TXNDC17 cysteine residue in human 786-O cell lysate at 5 uM incubated for 1 hr followed by cell lysis by IA-alkyne probe based isoTOP-ABPP analysis.

Receptor expression-enhancing protein 5 (Homo sapiens), sequence (Q00765 whole entry, the tested form may be a part): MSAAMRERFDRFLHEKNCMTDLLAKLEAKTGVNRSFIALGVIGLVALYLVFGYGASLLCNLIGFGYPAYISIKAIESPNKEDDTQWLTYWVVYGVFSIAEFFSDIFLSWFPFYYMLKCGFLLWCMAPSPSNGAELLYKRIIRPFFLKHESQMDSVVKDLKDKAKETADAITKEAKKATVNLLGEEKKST

With `O=C(Nc1cccnc1Cl)c1cc(N(CCCc2ccccc2)C(=O)CCl)cc(C(F)(F)F)c1`, the result in [1] was inactive. Also, in [2], the result was Active.
On to `CC(C)CCN(C(=O)CCl)c1cc(C(=O)NCc2cccc([N+](=O)[O-])c2)cc(C(F)(F)F)c1`, for which the inhibition entry in experiment [3] was “Dose-dependent effect”. Further, the Ratio in [4] came to 285 M⁻¹ s⁻¹. The results for the IC50 in experiment [5] and in experiment [6] were 39 µM and 4 µM, respectively. In addition, the outcome in experiment [7] was inactive. The outcome in [8], in experiment [9], in experiment [10], in experiment [11] and in [12] was Active.
